Tested on: biofilm within an infected cut
Assay: Chlorine dioxide disrupts biofilm within an infected cut (Example 4)
Type: in vivo
Conditions: retreated every 12 hours, after 36 hours
Description: FIGS. 3A, 3B, 3C, and 3D are photographs that show the progression of an infected cut at 0 hours, 12 hours, 24 hours, and 36 hours, respectively.
FIGS. 4A, 4B, 4C, and 4D are photographs that show the progression of an infected cut at 0 hours, 12 hours, 24 hours, and 36 hours, respectively.
Chlorine Dioxide and CURAD Antibacterial Bandages (benzalkonium chloride) are used in this example. The first of two infected cuts is exposed to 100 ppm of chlorine dioxide for 1 minute before the benzalkonium chloride bandage is applied. The second infected cut is not exposed to chlorine dioxide before the benzalkonium chloride bandage is applied. Both cuts are retreated every 12 hours. […] FIG. 4 illustrates that after 36 hours the second cut's infection, not treated with chlorine dioxide, actually increases.

Molecule	progress of the cut's infection (FIG. 3) (infected cut exposed to 100 ppm chlorine dioxide for 1 minute before benzalkonium chloride bandage)	progress of the cut's infection (FIG. 4) (infected cut with benzalkonium chloride bandage only, no chlorine dioxide)
[O][Cl+][O-] [chlorine dioxide]	significantly reduced	–
benzalkonium chloride	–	no apparent effect

Reference: patent US20200346957A1, “BIOFILM […] TO MICROBIAL DESTRUCTION” (DRIPPING WET WATER, INC., priority 2019, published 2020)
